Measured values: patent US9072778B2, “Treatment regimen for N-MYC, c-MYC, and L-MYC amplified and overexpressed tumors” (UNIVERSITY OF HAWAII, priority 2005, dated 2015)

How the values were obtained:
[1] = tested on: human ovarian cancer cells (SKOV-3); experiment: Growth, proliferation and morphology of ovarian cancer cells; format: cell-based; settings: DFMO or SAM486A
Source text: (Bachmann, A S, (2004) Hawaii Med. Journal, 63:371-373, which is incorporated herein by reference in its entirety). […] Micrographs were taken using an inverted phase contrast microscope (Nikon). In comparison with the ovarian cancer cells SKOV-3, the growth and proliferation of NB cells LAN-1 was inhibited much more drastically and caused significant morphological changes after only 3 days of treatment.
Similar effects were already apparent after 1-2 days (not shown). By comparison, the treatment of human melanoma cells (MALME-3) with polyamine inhibitors required more extensive incubation times (8-12 days) and led to less obvious rearrangements in cell structures (Kramer et al., (2001). Cancer Res, 61, 7754-62, which is incorporate herein by reference in its entirety).

[2] = tested on: p27^Kip1; experiment: Western blot of p27Kip1 in inhibitor-treated NB cells; format: cell-based, human; settings: LAN-1 and NMB-7; 5 mM DFMO, 10 μM SAM486A; days 2 and 3, relative to untreated control
Description: To further investigate the mechanism that regulates G1 arrest in LAN-1 and NMB-7 cells, and to define the changes in associated protein responses, the cell cycle-related proteins p21^Waf1/Cip1, p27^Kip1, p53, Rb, and MYCN in NB cell lysates were studied. Cells were analyzed on days 1, 2, and 3. Equal amounts of total protein were loaded in all experiments. Proteins were scanned and the ratio of hypophosphorylated Rb (pRb) (lower band):hyperphosphorylated Rb (ppRb) (upper band) was calculated (b). MYCN bands were quantified and normalized relative to β-actin. Values are presented as percentage (%) of controls of day 1, 2 or 3. (c). The data are representative of at least three independent experiments. […] To test for the presence of the cdk inhibitor protein p21^Waf1/Cip1, identical experiments were conducted, but the protein could not be detected (not shown). Low levels of p21^Waf1/Cip1 in NB cells have been previously described (McKenzie et al., (2003). Cancer Res, 63, 3840-4, which is incorporated herein by reference in its entirety). Similarly, the tumor suppressor protein p53 was not detected (not shown), which is in agreement with previous findings that cell lines LAN-1 and NMB-7 are p53 deficient. In contrast, p53 was readily expressed in identical Western blot control experiments and detected by immunofluorescence using the p53 wild type cell line SK-N-SH (not shown).

[3] = tested on: MYCN; experiment: Western blot of MYCN in inhibitor-treated NB cells; format: cell-based, human; settings: LAN-1 and NMB-7; 5 mM DFMO, 10 μM SAM486A (FIG. 7c)
Source text: It has also been shown that MYCN can regulate p27^Kip1 in NB cells by targeting p27^Kip1 to the proteasome (Nakamura et al., (2003) Cell Death Differ, 10, 230-9, which is incorporated herein by reference in its entirety), and it is therefore possible that the observed increase in p27^Kip1 is in response to a decrease in MYCN. […] The regulation of ODC by MYCN has been previously proposed (Ben-Yosef et al., (1998) Oncogene, 17, 165-71; Lu et al., (2003) Cancer Lett, 197, 125-30; Lutz et al., (1996) Oncogene, 13, 803-12, each of which is incorporated herein by reference in its entirety), but has not been definitively confirmed. The precise mechanism by which polyamines regulate MYCN in NB cells remains to be further clarified.
To further investigate the mechanism that regulates G1 arrest in LAN-1 and NMB-7 cells, and to define the changes in associated protein responses, the cell cycle-related proteins p21^Waf1/Cip1, p27^Kip1, p53, Rb, and MYCN in NB cell lysates were studied. Cells were analyzed on days 1, 2, and 3. Equal amounts of total protein were loaded in all experiments. Proteins were scanned and the ratio of hypophosphorylated Rb (pRb) (lower band):hyperphosphorylated Rb (ppRb) (upper band) was calculated (b). MYCN bands were quantified and normalized relative to β-actin. Values are presented as percentage (%) of controls of day 1, 2 or 3. (c). […]

| SMILES | cell morphology [1] | p27^Kip1 protein levels [2] | MYCN protein [3] |
| --- | --- | --- | --- |
| NCCC[C@](N)(C(=O)O)C(F)F [DFMO, α-difluoromethylornithine] | no visible changes in cell morphology | increased endogenous levels of cdk inhibitor protein p27^Kip1 | strong downregulation |
| N=C(N)c1cccc2c1CC/C2=N\N=C(N)N [SAM486A, 4-amidinoindan-1-one 2′-amidinohydrazone] | no visible changes in cell morphology | did not alter p27^Kip1 levels | almost no effect |
